Measurements as given in patent publication US5601801A, “Radiolabelled angiotensin converting enzyme inhibitors” (Merck Frosst Canada, Inc., priority 1994, dated 1997).
Like-named read-outs stand apart in the source and are kept apart here.

Molecular target: T1, angiotensin converting enzyme (ACE) (Oryctolagus cuniculus, UniProt P12822)
T1 construct: a slurry of 10 g of lyophilized rabbit lung powder (Pel-Freez); tissue Pel-Freez; host or cells: rabbit lung (lyophilized powder, buffer extract)
T1 sequence (P12822 34-1310): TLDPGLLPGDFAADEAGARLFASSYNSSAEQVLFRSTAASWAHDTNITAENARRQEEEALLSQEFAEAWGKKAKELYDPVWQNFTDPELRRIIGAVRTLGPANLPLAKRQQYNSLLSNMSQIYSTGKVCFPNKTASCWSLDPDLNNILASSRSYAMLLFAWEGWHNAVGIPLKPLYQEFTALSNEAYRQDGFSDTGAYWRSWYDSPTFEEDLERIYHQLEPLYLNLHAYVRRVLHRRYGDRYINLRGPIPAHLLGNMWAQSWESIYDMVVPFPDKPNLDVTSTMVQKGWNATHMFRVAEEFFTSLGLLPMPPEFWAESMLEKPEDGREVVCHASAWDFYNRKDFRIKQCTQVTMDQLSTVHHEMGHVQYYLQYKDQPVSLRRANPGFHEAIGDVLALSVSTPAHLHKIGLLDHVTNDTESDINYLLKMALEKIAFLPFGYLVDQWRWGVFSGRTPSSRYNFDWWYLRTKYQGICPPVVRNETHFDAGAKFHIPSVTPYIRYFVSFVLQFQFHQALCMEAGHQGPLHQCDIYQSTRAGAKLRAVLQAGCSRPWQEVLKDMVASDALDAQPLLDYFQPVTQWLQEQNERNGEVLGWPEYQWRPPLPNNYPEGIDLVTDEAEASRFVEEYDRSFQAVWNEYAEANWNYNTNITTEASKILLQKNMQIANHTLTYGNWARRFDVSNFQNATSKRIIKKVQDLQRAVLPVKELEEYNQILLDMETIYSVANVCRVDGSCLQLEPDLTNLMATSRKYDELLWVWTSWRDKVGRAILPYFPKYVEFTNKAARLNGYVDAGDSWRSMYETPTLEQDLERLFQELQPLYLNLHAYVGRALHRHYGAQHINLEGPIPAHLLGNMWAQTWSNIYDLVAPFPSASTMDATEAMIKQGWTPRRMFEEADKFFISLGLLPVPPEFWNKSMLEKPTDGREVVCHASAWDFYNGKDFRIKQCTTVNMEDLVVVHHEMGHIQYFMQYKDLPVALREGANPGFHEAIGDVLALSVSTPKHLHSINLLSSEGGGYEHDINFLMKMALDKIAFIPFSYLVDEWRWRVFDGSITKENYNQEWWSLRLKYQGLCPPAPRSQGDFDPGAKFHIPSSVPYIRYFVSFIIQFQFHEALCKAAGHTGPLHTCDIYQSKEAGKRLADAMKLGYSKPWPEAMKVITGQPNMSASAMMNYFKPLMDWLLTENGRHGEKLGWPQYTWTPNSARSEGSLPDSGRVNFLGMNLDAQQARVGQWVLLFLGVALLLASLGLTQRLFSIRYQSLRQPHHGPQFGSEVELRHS
Assay: IC50 Assay (Cushman and Cheung; hippuryl-L-histidyl-L-leucine hydrolysis by rabbit lung powder extract)
Type: biochemical
Procedure: According to the assay of Cushman and Cheung Biochem. Pharmacol 20, 1637, (1971), a slurry of 10 g of lyophilized rabbit lung powder (Pel-Freez) and 100 mL of 50 mM potassium phosphate buffer, pH 8.3, was blended for three one minute intervals followed by centrifugation for 40 minutes at 17,500 rpm. The clear supernatant was assayed for protein by the modified Lowry test and the volume of the rabbit lung powder extract (RLPE) was adjusted with buffer, 100 mM phosphate buffer prepared to yield a pH of 8.3 in the presence of 300 mM NaCl, to give 10-20 mU of angiotensin converting enzyme (ACE) activity in a 100 μL volume. The assay was carried out in 13×100 mm disposable culture tubes, with each assay tube containing 100 μL RLPE, 50 μL of a 12.5 mM solution of hippuryl-L-histidyl-L-leucine (HHL) (Sigma) in a buffer and 100 μL of inhibitor solution made up in buffer. The enzyme is added last to initiate the reaction and the tubes are incubated at 37° C. for one hour. The assay is terminated by the addition of 250 μL of 1M HCl to each tube; the HCl is added before the enzyme in the zero-time control assays. To each tube is added 1.5 mL of ethyl acetate followed by vortex mixing for 15 seconds. After the tubes have been centrifuged at 2,500 rpm for 5 minutes, 1 mL of the ethyl acetate layer is transferred to a clean 12×75 mm disposable culture tube. The ethyl acetate was evaporated by heating at 90° C. in a water bath for 30 minutes. Addition of 1 mL of water to each tube followed by vortex mixing for 15 seconds redissolves the hippuric acid. […]

Row | A228 ± SD (-log[MIBA] 7.246) | A228 ± SD (-log[MIBA] 8.246) | A228 ± SD (-log[MIBA] 9.246) | A228 ± SD (-log[MIBA] 10.246) | A228 ± SD (-log[MIBA] 11.246) | IC50 (rabbit lung ACE, HHL substrate, pH 8.3, 37° C., one hour, read-out: IC50) [nM] | SMILES | IC50 [nM] | A228 ± SD (-log[Lisin] 6.206) | A228 ± SD (-log[Lisin] 7.206) | A228 ± SD (-log[Lisin] 8.206) | A228 ± SD (-log[Lisin] 9.206) | A228 ± SD (-log[Lisin] 10.206)
1 | 0.025 ± 0.007 | 0.224 ± 0.016 | 1.196 ± 0.026 | 2.174 ± 0.047 | 2.360 ± 0.060 | 0.6 | O=C(NCCCC[C@H](N[C@@H](CCc1ccccc1)C(=O)O)C(=O)N1CCC[C@H]1C(=O)O)c1cccc(I)c1 [lisinopril MIBA] |  |  |  |  |  | 
2 |  |  |  |  |  |  | NCCCC[C@H](N[C@@H](CCc1ccccc1)C(=O)O)C(=O)N1CCC[C@H]1C(=O)O [lisinopril, reference compound] | 5.4 | 0.029 ± 0.007 | 0.175 ± 0.007 | 0.946 ± 0.012 | 2.275 ± 0.031 | 2.371 ± 0.060
